Results reported in publication PMC12195648 (Pharmaceuticals, 2025).

Test system: K562 cells
Test: Cytotoxicity, resazurin assay, K562
Type: cell-based, human
Conditions: Homo sapiens, K562; 72 h, resazurin, GI50 ± SD
Experimental: (§1) The development of the KCL22 subclone B8 (T315I, 100%) has been previously detailed. All cell lines were maintained in a humidified incubator at 37 °C and 5% CO2, following the manufacturer’s instructions, in the appropriate medium supplemented with 10% foetal bovine serum, penicillin (100 IU/mL), streptomycin (100 µg/mL), and glutamine (4 mM).
(§2) Cytotoxicity was assessed utilizing resazurin, an indicator dyes that measures oxidation-reduction reactions in the mitochondria of living cells. Cells were seeded into 96-well plates and treated with the compounds for 72 h (six different doses of each compound, in triplicate).

| Compound | GI50 |
| --- | --- |
| Cc1ccc(NC(=O)c2ccc(CN3CCN(C)CC3)cc2)cc1Nc1nccc(-c2cccnc2)n1 [imatinib, reference compound] | 230 ± 10 nM |

Test system: KCL22 cells
Test: Cytotoxicity, resazurin assay, KCL22
Type: cell-based, human
Conditions: Homo sapiens, KCL-22; 72 h, resazurin, GI50 ± SD
Experimental: as §1, §2

| Compound | GI50 |
| --- | --- |
| Cc1ccc(NC(=O)c2ccc(CN3CCN(C)CC3)cc2)cc1Nc1nccc(-c2cccnc2)n1 [imatinib, reference compound] | 9260 ± 1000 nM |

Test system: HEK-293T cells
Test: Cytotoxicity, resazurin assay, non-neoplastic HEK-293T
Type: cell-based
Conditions: Homo sapiens, 72 h, GI50 ± SD
Experimental: as §1, with “The human cell line KCL22 was sourced from the German Collection of Microorganisms and Cell Cultures, while K562 and HEK-293T cells were obtained from the European Collection of Authenticated Cell Cultures. The” for “The”
Cytotoxicity was assessed utilizing resazurin, an indicator dyes that measures oxidation-reduction reactions in the mitochondria of living cells. Cells were seeded into 96-well plates and treated with the compounds for 72 h (six different doses of each compound, in triplicate). After treatment, a solution of resazurin (Merck, Prague, Czech Republic) was added for 4 h, and the fluorescence of resorufin corresponding to viable cell quantity was measured at 544 nm/590 nm (excitation/emission) using a Fluoroskan Ascent microplate reader (LabSystems, Helsinki, Finland).

| Compound | GI50 |
| --- | --- |
| Cc1ccc(NC(=O)c2ccc(CN3CCN(C)CC3)cc2)cc1Nc1nccc(-c2cccnc2)n1 [imatinib, reference compound] | > 10000 nM |

Test system: Bcr-Abl
Test: not given
Conditions: 58-purine 3D-QSAR database, Table S3; cited from earlier work

| Compound | pIC50 Exp |
| --- | --- |
| CCCCCn1cnc2c(Nc3cccc(F)c3)nc(Nc3ccc(N4CCN(C)CC4)cc3)nc21 [Compound 42] | 6.187 |
| COc1cc(Cl)ccc1Nc1nc(Nc2ccc(N3CCN(C)CC3)cc2)nc2c1ncn2CC1CC1 [Compound 6] | 6.097 |
| CN1CCN(c2ccc(Nc3nc(Nc4ccc(C#N)cc4)c4ncn(CC5CC5)c4n3)cc2)CC1 [Compound 23] | 7.000 |
| COc1cc(Nc2nc(Nc3ccc(N4CCN(C)CC4)cc3)nc3c2ncn3CC2CC2)c(OC)cc1Cl [Compound 5] | 4.444 |
| CN1CCN(c2ccc(Nc3nc(Nc4ccc(F)c(F)c4)c4ncn(CC5CC5)c4n3)cc2)CC1 [Compound 4] | 7.398 |
| CCCCCCn1cnc2c(Nc3cccc(F)c3)nc(Nc3ccc(N4CCN(CCO)CC4)cc3)nc21 [Compound 57] | 6.174 |
| CN1CCN(Cc2ccc(Nc3nc(Nc4ccc(F)c(F)c4)c4ncn(CC5CC5)c4n3)cc2)CC1 [Compound 48] | 6.649 |
| CN1CCN(c2ccc(Nc3nc(Nc4ccccc4F)c4ncn(CC5CC5)c4n3)cc2)CC1 [Compound 14] | 5.378 |
| CC(C)CCn1cnc2c(Nc3ccccc3)nc(Nc3ccc(N4CCN(CCO)CC4)cc3)nc21 [Compound 53] | 5.907 |
| CN1CCN(C(=O)c2ccc(Nc3nc(Nc4ccc(F)c(F)c4)c4ncn(CC5CC5)c4n3)cc2)CC1 [Compound 31] | 6.027 |
| CCCCCCn1cnc2c(Nc3ccc(F)c(F)c3)nc(Nc3ccc(N4CCN(C)CC4)cc3)nc21 [Compound 40] | 4.469 |
| CC(C)CCn1cnc2c(Nc3ccc(F)c(F)c3)nc(Nc3ccc(N4CCN(C)CC4)cc3)nc21 [Compound 43] | 5.642 |
| CN1CCN(c2ccc(Nc3nc(Nc4ccccc4)c4ncn(CC5CC5)c4n3)cc2F)CC1 [Compound 7] | 6.237 |
| CC(C)CCn1cnc2c(Nc3cccc(F)c3)nc(Nc3ccc(N4CCN(CCO)CC4)cc3)nc21 [Compound 54] | 6.886 |
| CN1CCN(c2ccc(Nc3nc(Nc4cccc(C#N)c4)c4ncn(CC5CC5)c4n3)cc2)CC1 [Compound 15] | 7.155 |
| CN1CCN(c2ccc(Nc3nc(Nc4cccc(F)c4)c4ncn(CC5CC5)c4n3)cc2F)CC1 [Compound 9] | 6.222 |
| CCCCCCn1cnc2c(Nc3ccccc3)nc(Nc3ccc(N4CCN(CCO)CC4)cc3)nc21 [Compound 56] | 6.081 |
| CN1CCN(c2ccc(Nc3nc(NCc4ccccc4)c4ncn(CC5CC5)c4n3)cc2)CC1 [Compound 49] | 6.076 |
| CCCCCCCCn1cnc2c(Nc3ccc(F)c(F)c3)nc(Nc3ccc(N4CCN(C)CC4)cc3)nc21 [Compound 32] | 4.063 |
| CN1CCN(c2ccc(Nc3nc(Nc4ccc(OC(F)(F)F)c([N+](=O)[O-])c4)c4ncn(CC5CC5)c4n3)cc2)CC1 [Compound 28] | 6.357 |
| CN1CCN(c2ccc(Nc3nc(Nc4cccc(Cl)c4)c4ncn(CC5CC5)c4n3)cc2)CC1 [Compound 17] | 6.921 |
| CN1CCN(c2ccc(Nc3nc(Nc4cccc(F)c4)c4ncn(CC5CC5)c4n3)cc2)CC1 [Compound 3] | 7.398 |
| CN1CCN(c2ccc(Nc3nc(N)c4ncn(CC5CC5)c4n3)cc2)CC1 [Compound 46] | 5.403 |
| CN1CCN(c2ccc(Nc3nc(Nc4ccc(OC(F)(F)F)cc4)c4ncn(CC5CC5)c4n3)cc2)CC1 [Compound 21] | 6.409 |
| COC(=O)c1ccc(Nc2nc(Nc3ccc(N4CCN(C)CC4)cc3)nc3c2ncn3CC2CC2)cc1 [Compound 24] | 7.398 |
| CN1CCN(C(=O)c2ccc(Nc3nc(Nc4ccccc4)c4ncn(CC5CC5)c4n3)cc2)CC1 [Compound 29] | 5.917 |

| Compound | pIC50 Exp |
| --- | --- |
| CN1CCN(c2ccc(Nc3nc(Nc4ccc(Cl)c(Cl)c4)c4ncn(CC5CC5)c4n3)cc2)CC1 [Compound 26] | 7.155 |
| CN1CCN(c2ccc(Nc3nc(Nc4ccc(Cl)c(F)c4)c4ncn(CC5CC5)c4n3)cc2)CC1 [Compound 27] | 6.699 |
| CN1CCN(c2ccc(Nc3nc(Nc4ccc(F)cc4)c4ncn(CC5CC5)c4n3)cc2F)CC1 [Compound 8] | 5.971 |
| COc1ccc(Nc2nc(Nc3ccc(N4CCN(C)CC4)c(F)c3)nc3c2ncn3CC2CC2)cc1 [Compound 11] | 6.469 |
| CN1CCN(c2ccc(Nc3nc(Nc4cccc(OC(F)(F)F)c4)c4ncn(CC5CC5)c4n3)cc2)CC1 [Compound 19] | 5.939 |
| Cc1cccc(Nc2nc(Nc3ccc(N4CCN(C)CC4)cc3)nc3c2ncn3CC2CC2)c1 [Compound 16] | 7.000 |
| COc1cc(Cl)ccc1Nc1nc(Nc2ccc(N3CCN(C)CC3)c(F)c2)nc2c1ncn2CC1CC1 [Compound 13] | 5.074 |
| CN1CCN(c2ccc(Nc3nc(NC4CCCCC4)c4ncn(CC5CC5)c4n3)cc2)CC1 [Compound 47] | 4.956 |
| OCCN1CCN(c2ccc(Nc3nc(Nc4ccc(F)c(F)c4)c4ncn(CC5CC5)c4n3)cc2)CC1 [Compound 52] | 7.703 |
| CCCCCCn1cnc2c(Nc3ccccc3)nc(Nc3ccc(N4CCN(C)CC4)cc3)nc21 [Compound 38] | 5.008 |
| OCCN1CCN(c2ccc(Nc3nc(Nc4cccc(F)c4)c4ncn(CC5CC5)c4n3)cc2)CC1 [VII] | 7.833 |
| CN1CCN(c2ccc(Nc3nc(Nc4cccc(C(F)(F)F)c4)c4ncn(CC5CC5)c4n3)cc2)CC1 [Compound 18] | 5.75 |
| CC(C)CCn1cnc2c(Nc3ccccc3)nc(Nc3ccc(N4CCN(C)CC4)cc3)nc21 [Compound 36] | 5.750 |
| CN1CCN(c2ccc(Nc3nc(Nc4ccccc4)c4ccn(CC5CC5)c4n3)cc2)CC1 [Compound 44] | 4.206 |
| CC(C)CCn1cnc2c(Nc3cccc(F)c3)nc(Nc3ccc(N4CCN(C)CC4)cc3)nc21 [Compound 34] | 4.301 |
| CN1CCN(c2ccc(Nc3nc(Nc4ccc(F)c(Cl)c4)c4ncn(CC5CC5)c4n3)cc2)CC1 [Compound 25] | 6.569 |
| CC(C)CCn1cnc2c(Nc3ccc(F)c(F)c3)nc(Nc3ccc(N4CCN(CCO)CC4)cc3)nc21 [Compound 55] | 5.754 |
| CCCCCn1cnc2c(Nc3ccc(F)c(F)c3)nc(Nc3ccc(N4CCN(C)CC4)cc3)nc21 [Compound 37] | 5.866 |
| CN1CCN(Cc2ccc(Nc3nc(Nc4cccc(F)c4)c4ncn(CC5CC5)c4n3)cc2)CC1 [Compound 45] | 6.744 |
| CN1CCN(C(=O)c2ccc(Nc3nc(Nc4cccc(F)c4)c4ncn(CC5CC5)c4n3)cc2)CC1 [Compound 30] | 6.244 |
| CN1CCN(c2ccc(Nc3nc(Nc4ccc(F)c(F)c4)c4ncn(CC5CC5)c4n3)cc2F)CC1 [Compound 10] | 6.237 |
| CCCCCCn1cnc2c(Nc3ccc(F)c(F)c3)nc(Nc3ccc(N4CCN(CCO)CC4)cc3)nc21 [Compound 58] | 5.775 |
| CN1CCN(c2ccc(Nc3nc(Nc4ccc([N+](=O)[O-])cc4)c4ncn(CC5CC5)c4n3)cc2)CC1 [Compound 22] | 6.886 |
| CCCCCn1cnc2c(Nc3ccccc3)nc(Nc3ccc(N4CCN(C)CC4)cc3)nc21 [Compound 35] | 5.910 |
| CN1CCN(c2ccc(Nc3nc(Nc4cccc([N+](=O)[O-])c4)c4ncn(CC5CC5)c4n3)cc2)CC1 [Compound 20] | 6.770 |

Same assay, conditions: earlier purines of the group; cited from earlier work

| Compound | IC50 |
| --- | --- |
| CCCCCCCCn1cnc2c(Nc3ccc(F)c(F)c3)nc(Nc3ccc(N4CCN(C)CC4)cc3)nc21 [Compound 32] | 86500 nM |
| CN1CCN(c2ccc(Nc3nc(Nc4cccc(C#N)c4)c4ncn(CC5CC5)c4n3)cc2)CC1 [X] | 70 nM |
| OCCN1CCN(c2ccc(Nc3nc(Nc4cccc(F)c4)c4ncn(CC5CC5)c4n3)cc2)CC1 [VII] | 15 nM |
